The conditions of data set [1]: cited from earlier work.
Data set [2] concerns beagle dogs. Put plainly: Cardiovascular and respiratory effects following intravenous administration in anaesthetised beagle dogs. It is filed as in vivo, beagle dog. As for the experimental part: The following parameters were recorded or derived and served as indicators of the functional status of the various elements within the cardiovascular and respiratory systems. The units of measurement are stated in parenthesis.
Anaesthesia was induced by i.v. injection of sodium thiopentone and maintained i.v. by a mixture of α-chloralose and pentobarbitone sodium given as required. Body temperature was maintained.
The trachea was cannulated and the canule connected to a pneumotach screen to allow measurement of tidal volume (ml) and the derived parameters of respiration rate (br/min) and minute volume (ml). Catheters were introduced into the right femoral artery and a cephalic vein to facilitate measurements of blood pressure and the administration of vehicle, test substances and anaesthetic respectively. The femoral artery was connected to a heparin/saline filled pressure transducer, coupled to a Grass 7E polygraph. […]
Following a 30 minute stabilization period, the vehicle was administered i.v. at a dose volume of 7.0 ml/kG over a period of 15 minutes. […] The parameters were monitored for a least 45 minutes from the start of infusion. […]
All parameters including high resolution (50 mm/sec) recordings of the ECG were measured at 5 minute intervals during the stabilization period and at 0.5, 1, 2 and 5 minutes intervals post-dose following vehicle and drug administration. […]

For data set [3] the following is noted: aqueous.

Where two headings read alike, the source gives them in different places.

`CC(=O)O[C@H]1C(=O)[C@@]2(C)[C@H]([C@H](OC(=O)c3ccccc3)[C@]3(O)C[C@H](OC(=O)[C@H](O)[C@@H](NC(=O)c4ccccc4)c4ccccc4)C(C)=C1C3(C)C)[C@]1(OC(C)=O)CO[C@@H]1C[C@@H]2O` [paclitaxel]: the values for the aqueous solubility entry in data set [1] (ambient temperature) and in data set [1] (room temperature) were “about 0.0005 mg/ml” and “about 0.5 μg/ml”, respectively. In data set [2] (6 and 60 mg/m^2 in Cremophor ELP:ethanol 1:1, i.v., animals 1 and 2, administration discontinued), the “outcome of i.v. administration” value was “death of the animals”. The “reaction to intravenous administration” value in data set [2] (dog, in vivo, iv) is recorded as “anaphylactic type reaction”. Besides, the “Dissolved Paclitaxel” value in data set [3] (2% w/v acetyl-γ-cyclodextrin) was determined as 4.0 µg/mL; in data set [3] (5% w/v acetyl-γ-cyclodextrin) it was 8.8 µg/mL; in data set [3] (10% w/v acetyl-γ-cyclodextrin), 25.0 µg/mL; in data set [3] (20% w/v acetyl-γ-cyclodextrin) it was 48.0 µg/mL; in data set [3] (40% w/v acetyl-γ-cyclodextrin), 170 µg/mL; in data set [3] (40% w/v acetyl-γ-cyclodextrin, listed as Paclitaxel), 170.0 µg/mL.

The values are drawn from patent publication US7671042B2, “Pharmaceutical compositions containing cyclodextrins and taxoids” (priority 1997, dated 2010).
